Results as given in publication PMC12682859, “Interconnected roles of mitochondrial carrier proteins ANT, PiT, and UCPs in proton transport” (Frontiers in Molecular Biosciences, 2025).

Tests used:
ANT1 = molecular target: T1, ANT1 (Bos taurus, UniProt P02722); experiment: biochemical; parameters: gene SLC25A4; full length, N-terminal His6 tag kept, pelB leader removed; E. coli membranes; mainly monomer in liposomes; SPQ fluorescence quenching assay of proton transport by carriers reconstituted in EYPC liposomes, palmitic acid activated; conditions: EYPC liposomes + 2.5% cardiolipin, 100 uM palmitic acid
T1 sequence (P02722 2-298): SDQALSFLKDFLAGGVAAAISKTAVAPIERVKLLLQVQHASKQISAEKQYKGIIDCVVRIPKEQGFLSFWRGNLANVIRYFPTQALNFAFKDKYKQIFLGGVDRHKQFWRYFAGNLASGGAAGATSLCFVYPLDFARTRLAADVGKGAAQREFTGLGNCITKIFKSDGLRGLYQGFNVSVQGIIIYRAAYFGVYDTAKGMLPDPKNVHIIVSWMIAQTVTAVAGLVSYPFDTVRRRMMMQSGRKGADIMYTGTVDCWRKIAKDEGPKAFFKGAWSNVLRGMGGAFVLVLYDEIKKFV
Method: FIGURE 8 Proton transport and CATR-inhibited proton transport rates of reconstituted UCP2, UCP4, ANT1, co-reconstituted UCP4:ANT1 and UCP2:ANT1 (1:1 stoichiometric ratio) in liposomes made from EYPC containing 2.5% added CL, in the presence of 100 μM palmitic acid (PA). Each experiment included final concentrations of 1 μM total combined protein and 1 mM lipid. Dark bars represent the total proton transport rate in the absence of CATR, shaded Gray bars represent the proton transport rate in the presence of 5 μM CATR (for corresponding numerical values, see Supplementary Table S6). Each bar represents the average transport rate of at least 10 repeats (from at least two independent experiments), and the error bars show the standard deviations. Asterisks (*) indicate a statistically significant difference (p < 0.05) between the total proton efflux and CATR-inhibited efflux within each combination. Note that the proton transport data for UCP4, UCP2, and ANT1 are reproduced from Figure 5. For the 1:1 combination of UCP4 and ANT1 heterotetramers, to further confirm the cooperativity between ANT1 and UCP4 dimers, we examined proton transport in the presence of the known ANT inhibitor CATR. CATR is an irreversible substrate inhibitor of ANT that blocks its ADP-ATP exchange function ([Klingenberg et al., 1975]). […]

UCP4 = molecular target: T2, UCP4 (Homo sapiens, UniProt O95847); experiment: biochemical; parameters: SPQ fluorescence quenching assay of proton transport by carriers reconstituted in EYPC liposomes, palmitic acid activated; conditions: EYPC liposomes + 2.5% cardiolipin, 100 uM palmitic acid
T2 construct: gene SLC25A27; full length, N-terminal His6 tag kept, pelB leader removed; E. coli membranes; homotetramer in liposomes
T2 sequence (O95847 1-323): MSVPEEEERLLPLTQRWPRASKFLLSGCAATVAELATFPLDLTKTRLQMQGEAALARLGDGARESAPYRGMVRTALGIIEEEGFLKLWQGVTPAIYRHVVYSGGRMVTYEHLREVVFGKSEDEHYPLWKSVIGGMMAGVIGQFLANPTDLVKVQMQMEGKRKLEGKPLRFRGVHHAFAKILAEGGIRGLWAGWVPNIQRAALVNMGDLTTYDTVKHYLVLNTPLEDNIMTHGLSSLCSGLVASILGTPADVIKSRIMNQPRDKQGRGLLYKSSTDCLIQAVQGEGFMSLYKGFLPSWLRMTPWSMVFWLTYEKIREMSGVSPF
Method: (§1) FIGURE 8 Proton transport and CATR-inhibited proton transport rates of reconstituted UCP2, UCP4, ANT1, co-reconstituted UCP4:ANT1 and UCP2:ANT1 (1:1 stoichiometric ratio) in liposomes made from EYPC containing 2.5% added CL, in the presence of 100 μM palmitic acid (PA). Each experiment included final concentrations of 1 μM total combined protein and 1 mM lipid. Dark bars represent the total proton transport rate in the absence of CATR, shaded Gray bars represent the proton transport rate in the presence of 5 μM CATR (for corresponding numerical values, see Supplementary Table S6). Each bar represents the average transport rate of at least 10 repeats (from at least two independent experiments), and the error bars show the standard deviations. Asterisks (*) indicate a statistically significant difference (p < 0.05) between the total proton efflux and CATR-inhibited efflux within each combination. Note that the proton transport data for UCP4, UCP2, and ANT1 are reproduced from Figure 5. For the 1:1 combination of UCP4 and ANT1 heterotetramers, to further confirm the cooperativity between ANT1 and UCP4 dimers, we examined proton transport in the presence of the known ANT inhibitor CATR. CATR is an irreversible substrate inhibitor of ANT that blocks its ADP-ATP exchange function ([Klingenberg et al., 1975]). We surmised that irreversible inhibition of the nucleotide exchange activity of ANT and prevention of its alternating transport function could also affect the cooperativity of proton transport activity of ANT1-UCP4 heterotetramers. To verify this hypothesis, we first examined the inhibitory effect of CATR on the proton transport activity of individually reconstituted UCP4 and ANT1. […] A similar inhibitory effect of CATR on the proton transport function of ANT has been reported in a previous study ([Kreiter et al., 2021]). […] Supplementary Material . Figure S1. Schematic of proton transport assay and data analysis. […]

[1] = molecular target: T3, UCP2:ANT1 heterotetramer (1:1) (Homo sapiens; Bos taurus, UniProt P02722+P55851); experiment: biochemical; parameters: SPQ fluorescence quenching assay of proton transport by carriers reconstituted in EYPC liposomes, palmitic acid activated; conditions: EYPC liposomes + 2.5% cardiolipin, 100 uM palmitic acid
T3 construct: co-reconstituted 1:1 in liposomes from purified N-terminally His6-tagged monomers (bovine ANT1, human UCP2); heterotetramer
T3 sequence (P55851 1-309): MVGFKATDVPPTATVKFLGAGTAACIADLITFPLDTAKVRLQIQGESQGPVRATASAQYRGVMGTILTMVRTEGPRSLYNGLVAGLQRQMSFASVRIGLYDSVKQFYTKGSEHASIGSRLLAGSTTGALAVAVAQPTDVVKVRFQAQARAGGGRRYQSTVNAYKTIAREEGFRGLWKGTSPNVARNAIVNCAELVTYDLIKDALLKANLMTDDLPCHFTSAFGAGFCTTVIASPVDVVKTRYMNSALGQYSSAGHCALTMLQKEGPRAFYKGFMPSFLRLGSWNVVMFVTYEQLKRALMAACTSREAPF
T3 sequence (P02722 2-298): T1 sequence (P02722 2-298)
Method: as §1

UCP2 = molecular target: T4, UCP2 (Homo sapiens, UniProt P55851); experiment: biochemical; parameters: SPQ fluorescence quenching assay of proton transport by carriers reconstituted in EYPC liposomes, palmitic acid activated; conditions: EYPC liposomes + 2.5% cardiolipin, 100 uM palmitic acid
T4 construct: full length, N-terminal His6 tag kept, pelB leader removed; E. coli membranes; homotetramer in liposomes
T4 sequence (P55851 1-309): T3 sequence (P55851 1-309)
Method: as §1

[2] = molecular target: T5, UCP4:ANT1 heterotetramer (1:1) (Homo sapiens; Bos taurus, UniProt O95847+P02722); experiment: SPQ fluorescence proton efflux in proteoliposomes; format: biochemical; conditions: read-out: % inhibition at 5 uM
T5 construct: gene SLC25A27; co-reconstituted 1:1 in liposomes from purified N-terminally His6-tagged monomers (bovine ANT1, human UCP4); heterotetramer
T5 sequence (O95847 1-323): T2 sequence (O95847 1-323)
T5 sequence (P02722 2-298): T1 sequence (P02722 2-298)

Structure (SMILES): C=C1[C@@H]2CC[C@H]3[C@]4(C)C[C@H](O[C@@H]5O[C@H](CO)[C@@H](OS(=O)(=O)O)[C@H](OS(=O)(=O)O)[C@H]5OC(=O)CC(C)C)CC(C(=O)O)(C(=O)O)[C@H]4CC[C@]3(C2)[C@H]1O [CATR, carboxyatractyloside]
- inhibition at 5 µM (ANT1): 70.1%
- inhibition at 5 µM (UCP4): 2.7%
- inhibition at 5 µM [1]: 73.6%
- inhibition at 5 µM (UCP2): 1.7%
- inhibition at 5 µM [2]: ~71%
